This experiment concerns the target T1, Nav 1.7 (Homo sapiens, UniProt Q15858).
T1 construct: expressed in transfected cells
As to the kind of experiment: Whole-cell voltage clamp electrophysiology, automated patch clamp (marker c in Table of Examples). The conditions noted are these: read-out: Nav 1.7 activity. It is filed as cell-based. The text has this: a.IonWork Quattro data, b=Manual patch clamp data, c=Automated patch clamp data M=Method
Whole-Cell Voltage Clamp Electrophysiology Assay
Patch-clamp electrophysiology is considered the gold standard technique for investigation of ion channel function and pharmacology. Using this method, sodium channel currents can be measured in cells, which stably (or transiently) express the sodium channel subtype of interest. Application of compounds during such experiments provides a functional measure of the activity and potency of compounds affecting the ion channel of interest.
Electrophysiological studies can be performed using automated or manual patch-clamp techniques. Automated patch-clamp instruments suitable for this work include the Ion Works HT (MDS), Ion Works Quattro (MDS), PatchLiner (Nanion technologies), Port-A-Patch (Nanion technologies), QPatch (Sophion) or any other suitable platform.
For recording in automated patch-clamp instruments, cells expressing the voltage-gated sodium channel subtype of interest are dispensed in appropriate chips (plates with more than one recording chambers each containing one or more apertures to generate whole-cell patches), as provided by the manufacturer. Typically, the whole-cell perforated patch configuration is used for probing the pharmacology of compounds in automated patch-clamp electrophysiology on sodium channels. Extracellular and intracellular buffers for such experiments are composed according to the literature, or according to the instructions provided by the manufacturer of the instruments. Test solutions, which contain the compounds to be tested, are applied to the cells expressing the sodium channel of interest by a pipetting system, typically integrated into the robots.
A suitable voltage stimulus protocol is used to activate voltage-gated sodium channel proteins of interest. A typical stimulus protocol may consist of sweeps of sequential voltage pulses starting from a holding potential (i.e. −65 mV), to a more positive and depolarising test pulse potential (i.e. −10 mV) and finally to a more negative and hyperpolarising potential (i.e. −100 mV). According to the biophysics of the voltage-gated ion channel of interest and interest in channel configuration the voltages and durations of the pulses as well as the overall frequency of sweeps applied might vary. Accordingly, a stimulus protocol was designed to assess compounds due to their potential to block NaV1.7 channels primarily in inactivated state. Selectivity over other voltage-gated sodium channel members was assessed by protocols that reflect the native function of the channels (i.e. heart rate or firing of neurons).

[1] abbreviates: marker c = Automated patch clamp data.
Where [2] appears, read: marker c: Automated patch clamp data.

Read-outs that look alike come from different tables or passages of the source.

T1 sequence (Q15858 whole entry): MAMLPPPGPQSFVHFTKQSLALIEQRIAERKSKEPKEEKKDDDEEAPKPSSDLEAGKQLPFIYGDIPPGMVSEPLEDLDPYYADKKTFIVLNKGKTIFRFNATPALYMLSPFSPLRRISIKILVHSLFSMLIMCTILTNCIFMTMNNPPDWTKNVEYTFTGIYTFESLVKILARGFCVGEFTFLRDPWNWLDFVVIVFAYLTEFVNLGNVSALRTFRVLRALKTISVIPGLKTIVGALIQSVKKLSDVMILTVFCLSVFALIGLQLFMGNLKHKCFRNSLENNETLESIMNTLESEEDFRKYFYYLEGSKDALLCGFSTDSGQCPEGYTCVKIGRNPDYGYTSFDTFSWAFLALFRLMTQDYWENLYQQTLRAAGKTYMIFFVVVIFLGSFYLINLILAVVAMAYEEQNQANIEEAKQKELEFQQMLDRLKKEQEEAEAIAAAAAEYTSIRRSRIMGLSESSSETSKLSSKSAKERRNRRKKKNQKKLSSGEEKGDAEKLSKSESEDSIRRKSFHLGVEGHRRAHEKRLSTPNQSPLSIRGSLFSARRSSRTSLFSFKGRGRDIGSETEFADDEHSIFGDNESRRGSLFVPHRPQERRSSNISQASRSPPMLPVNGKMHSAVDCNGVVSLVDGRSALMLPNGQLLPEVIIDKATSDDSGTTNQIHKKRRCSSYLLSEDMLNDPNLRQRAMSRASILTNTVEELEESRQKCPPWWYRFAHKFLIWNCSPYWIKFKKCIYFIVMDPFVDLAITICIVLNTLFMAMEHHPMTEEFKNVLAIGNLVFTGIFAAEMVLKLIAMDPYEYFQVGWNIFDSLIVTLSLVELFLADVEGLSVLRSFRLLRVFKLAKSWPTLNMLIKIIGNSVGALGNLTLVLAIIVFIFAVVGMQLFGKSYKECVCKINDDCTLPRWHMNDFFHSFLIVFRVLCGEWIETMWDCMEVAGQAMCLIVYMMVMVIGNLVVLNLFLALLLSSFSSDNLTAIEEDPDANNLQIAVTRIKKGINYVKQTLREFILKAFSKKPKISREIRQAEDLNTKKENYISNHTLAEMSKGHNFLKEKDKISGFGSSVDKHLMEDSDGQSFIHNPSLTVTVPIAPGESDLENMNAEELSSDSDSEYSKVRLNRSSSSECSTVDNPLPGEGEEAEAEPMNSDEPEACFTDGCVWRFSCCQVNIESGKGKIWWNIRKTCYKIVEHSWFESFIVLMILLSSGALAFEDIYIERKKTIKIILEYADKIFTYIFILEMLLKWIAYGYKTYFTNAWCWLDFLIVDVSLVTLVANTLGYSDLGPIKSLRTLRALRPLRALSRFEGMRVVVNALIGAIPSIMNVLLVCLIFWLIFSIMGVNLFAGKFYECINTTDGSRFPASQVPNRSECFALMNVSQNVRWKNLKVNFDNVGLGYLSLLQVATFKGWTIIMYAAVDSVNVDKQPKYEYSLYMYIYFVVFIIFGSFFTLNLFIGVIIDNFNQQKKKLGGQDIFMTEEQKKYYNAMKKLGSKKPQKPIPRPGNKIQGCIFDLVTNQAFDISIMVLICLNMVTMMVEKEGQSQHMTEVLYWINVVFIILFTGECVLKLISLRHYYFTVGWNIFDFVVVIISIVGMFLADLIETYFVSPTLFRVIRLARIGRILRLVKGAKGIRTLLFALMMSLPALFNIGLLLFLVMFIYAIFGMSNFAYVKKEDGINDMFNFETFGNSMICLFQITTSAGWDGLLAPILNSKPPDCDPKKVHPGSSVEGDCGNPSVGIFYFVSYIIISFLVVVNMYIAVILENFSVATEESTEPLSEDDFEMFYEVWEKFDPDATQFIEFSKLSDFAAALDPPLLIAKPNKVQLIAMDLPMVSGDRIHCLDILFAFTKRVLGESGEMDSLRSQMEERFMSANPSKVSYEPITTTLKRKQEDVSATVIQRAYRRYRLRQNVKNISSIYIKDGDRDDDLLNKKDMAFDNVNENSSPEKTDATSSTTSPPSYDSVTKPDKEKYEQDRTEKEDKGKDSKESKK

Turning to `COCCN(c1ccccc1)c1nc(N)nc(-c2noc(-c3c(F)cccc3OC)n2)n1` [Example 437, 6-[5-(2-fluoro-6-methoxyphenyl)-1,2,4-oxadiazol-3-yl]-2-N-(2-methoxyethyl)-2-N-phenyl-1,3,5-triazine-2,4-diamine], under setting [1], the IC50 is 0.167 µM.
Take `CCN(c1ccccc1)c1nc(N)nc(-c2noc(-c3ccc(F)cc3Cl)n2)n1` [Example 193, 6-[5-(2-chloro-4-fluorophenyl)-1,2,4-oxadiazol-3-yl]-2-N-ethyl-2-N-phenyl-1,3,5-triazine-2,4-diamine]: under setting [2], the IC50 came out at 0.083 µM.
Consider `CN(c1ccccc1)c1nc(N)nc(-c2noc(-c3ccc(CS(=O)(=O)CC(F)(F)F)nc3)n2)n1` [Example 321, 2-N-methyl-2-N-phenyl-6-[5-(6-{[(2,2,2-trifluoroethane)sulfonyl]methyl}pyridin-3-yl)-1,2,4-oxadiazol-3-yl]-1,3,5-triazine-2,4-diamine], for which the IC50 under setting [1] worked out at 0.149 µM.
Same read-out and setting: as for `Cc1cnc(-c2nc(-c3nc(N)nc(N(C)c4ccccc4)n3)no2)s1` [Example 342], the figure is 2.03 µM.
Regarding `CC(C)Nc1ccc(-c2nc(-c3nc(N)nc(N(C)c4ccccc4)n3)no2)cn1` [Example 332, 2-N-Methyl-2-N-phenyl-6-(5-{6-[(propan-2-yl)amino]pyridin-3-yl}-1,2,4-oxadiazol-3-yl)-1,3,5-triazine-2,4-diamine], the IC50 under setting [1] amounted to 1.11 µM.
With `CN(c1ccccc1)c1nc(N)nc(-c2noc(-c3n[nH]cc3Cl)n2)n1` [Example 254, 6-[5-(4-chloro-1H-pyrazol-3-yl)-1,2,4-oxadiazol-3-yl]-2-N-methyl-2-N-phenyl-1,3,5-triazine-2,4-diamine], under setting [1], the IC50 amounted to 0.548 µM.
The same measure, in the same setting: then `CN(c1ccccc1)c1nc(N)nc(-c2noc(-c3ccc(S(C)(=O)=O)cc3)n2)n1` [Example 421, 6-[5-(4-methanesulfonylphenyl)-1,2,4-oxadiazol-3-yl]-2-N-methyl-2-N-phenyl-1,3,5-triazine-2,4-diamine], with 1.43 µM; and `CN(c1ccccc1)c1nc(N)nc(-c2noc(-c3cccnc3C(=O)OCC3CC3)n2)n1` [Example 378, cyclopropylmethyl 3-(3-{4-amino-6-[methyl(phenyl)amino]-1,3,5-triazin-2-yl}-1,2,4-oxadiazol-5-yl)pyridine-2-carboxylate], with 0.399 µM.
Regarding `CN(c1ccccc1)c1nc(N)nc(-c2noc(N3CCC(CS(=O)(=O)c4ccccc4)CC3)n2)n1` [Example 179, 6-(5-{4-[(benzenesulfonyl)methyl]piperidin-1-yl}-1,2,4-oxadiazol-3-yl)-2-N-methyl-2-N-phenyl-1,3,5-triazine-2,4-diamine], the IC50 under setting [2] was found to be 0.81 µM.
Regarding `CN(c1ccccc1)c1nc(N)nc(-c2noc(-c3ccc(C(=O)NCC(F)(F)F)cn3)n2)n1` [Example 292, 6-(3-{4-amino-6-[methyl(phenyl)amino]-1,3,5-triazin-2-yl}-1,2,4-oxadiazol-5-yl)-N-(2,2,2-trifluoroethyl)pyridine-3-carboxamide], the IC50 under setting [1] turned out to be 2.71 µM.
`CN(c1ccc(F)cc1)c1nc(N)nc(-c2noc(-c3ccc(OCC(F)(F)F)nc3)n2)n1` [Example 410, 2-N-(4-fluorophenyl)-2-N-methyl-6-{5-[6-(2,2,2-trifluoroethoxy)pyridin-3-yl]-1,2,4-oxadiazol-3-yl}-1,3,5-triazine-2,4-diamine]: under setting [1], the IC50 was 1.15 µM.
The same measure, in the same setting: as for `Nc1nc(Nc2ccccc2)nc(-c2noc(N3CCC(COC4CCC4)CC3)n2)n1` [Example 215, 6-{5-[4-(cyclobutoxymethyl)piperidin-1-yl]-1,2,4-oxadiazol-3-yl}-2-N-phenyl-1,3,5-triazine-2,4-diamine], the figure is 0.28 µM.
Still for that read-out and setting: then `CN(c1ccccc1)c1nc(N)nc(-c2noc(-c3ncccc3C(F)(F)F)n2)n1` [Example 348, 2-N-methyl-2-N-phenyl-6-{5-[3-(trifluoromethyl)pyridin-2-yl]-1,2,4-oxadiazol-3-yl}-1,3,5-triazine-2,4-diamine], with 0.328 µM.
Regarding `CN(c1ccccc1)c1nc(N)nc(-c2noc(-c3ccncc3)n2)n1` [Example 114, N-Methyl-N-phenyl-6-(5-pyridin-4-yl-[1,2,4]oxadiazol-3-yl)-[1,3,5]triazine-2,4-diamine], under setting [2], the IC50 was found to be 0.606 µM.
In the case of `CN(c1ccccc1)c1nc(N)nc(-c2noc(-c3ncccc3C(=O)OCC3CC3)n2)n1` [Example 377], the IC50 under setting [1] was 0.232 µM.
For the compound `CCN(c1ccccc1)c1nc(N)nc(-c2noc(-c3c(F)cccc3OC)n2)n1` [Example 191, 2-N-ethyl-6-[5-(2-fluoro-6-methoxyphenyl)-1,2,4-oxadiazol-3-yl]-2-N-phenyl-1,3,5-triazine-2,4-diamine], the IC50 under setting [2] was 0.067 µM.
On to `CC(C)C(=O)N1CCC(c2nc(-c3nc(N)nc(N(C)c4ccccc4)n3)no2)CC1` [Example 161, 1-[4-(3-{4-Amino-6-[methyl(phenyl)amino]-1,3,5-triazin-2-yl}-1,2,4-oxadiazol-5-yl)piperidin-1-yl]-2-methylpropan-1-one], for which, under setting [2], the IC50 was 8.5 µM.
On the same count and under the same terms, as for `CN(c1ccccc1)c1nc(N)nc(-c2noc(-c3ccc(F)nc3)n2)n1` [Example 158, 6-[5-(6-fluoropyridin-3-yl)-1,2,4-oxadiazol-3-yl]-2-N-methyl-2-N-phenyl-1,3,5-triazine-2,4-diamine], the figure is 3.31 µM.
On to `CN(c1ccccc1)c1nc(N)nc(-c2noc(C(=O)Nc3ccc(C(F)(F)F)nc3)n2)n1` [Example 263, 3-{4-amino-6-[methyl(phenyl)amino]-1,3,5-triazin-2-yl}-N-[6-(trifluoromethyl)pyridin-3-yl]-1,2,4-oxadiazole-5-carboxamide], for which the IC50 under setting [1] was found to be 6.01 µM.
Take `CN(c1ccccc1)c1nc(N)nc(-c2noc(C3CN(CCC(F)(F)F)C3)n2)n1` [Example 385, 2-N-methyl-2-N-phenyl-6-{5-[1-(3,3,3-trifluoropropyl)azetidin-3-yl]-1,2,4-oxadiazol-3-yl}-1,3,5-triazine-2,4-diamine]: the IC50 under setting [1] was 2.21 µM.
The same measure, in the same setting: as for `CN(c1ccccc1)c1nc(N)nc(-c2noc(-c3ccc(CNC4CCC4)nc3)n2)n1` [Example 300, 6-(5-{6-[(cyclobutylamino)methyl]pyridin-3-yl}-1,2,4-oxadiazol-3-yl)-2-N-methyl-2-N-phenyl-1,3,5-triazine-2,4-diamine], the figure is 0.619 µM; as for `CN(c1ccccc1)c1nc(N)nc(-c2noc(-c3cccnc3Cl)n2)n1` [Example 275, 6-[5-(2-chloropyridin-3-yl)-1,2,4-oxadiazol-3-yl]-2-N-methyl-2-N-phenyl-1,3,5-triazine-2,4-diamine], 3.49 µM.
Regarding `COc1cccc(-c2nc(-c3nc(N)nc(N(C)c4ccccc4F)n3)no2)c1` [Example 88, N-(2-Fluoro-phenyl)-6-[5-(3-methoxy-phenyl)-[1,2,4]oxadiazol-3-yl]-N-methyl-[1,3,5]triazine-2,4-diamine], the IC50 under setting [2] was 0.361 µM.
Same read-out and setting: as for `CN(c1ccccc1)c1nc(N)nc(-c2noc(C3CCN(C(=O)CC(F)(F)F)CC3)n2)n1` [Example 164, 1-[4-(3-{4-amino-6-[methyl(phenyl)amino]-1,3,5-triazin-2-yl}-1,2,4-oxadiazol-5-yl)piperidin-1-yl]-3,3,3-trifluoropropan-1-one], the figure is 9.04 µM.
On the same count and under the same terms, as for `CN(c1ccccc1)c1nc(N)nc(-c2noc(-c3cccc(F)c3)n2)n1` [Example 123, 6-[5-(3-Fluoro-phenyl)-[1,2,4]oxadiazol-3-yl]-N-methyl-N-phenyl-[1,3,5]triazine-2,4-diamine], the figure is 0.929 µM.
As to `Nc1nc(Nc2ccccc2)nc(-c2noc(NC3CCCCC3)n2)n1` [Example 242, 6-[5-(cyclohexylamino)-1,2,4-oxadiazol-3-yl]-2-N-phenyl-1,3,5-triazine-2,4-diamine], the IC50 under setting [1] stood at 5.37 µM.
In the case of `CN(c1ccccc1)c1nc(N)nc(-c2noc(C3CCC(O)CC3)n2)n1` (stereo not drawn) [Example 424, 4-(3-{4-amino-6-[methyl(phenyl)amino]-1,3,5-triazin-2-yl}-1,2,4-oxadiazol-5-yl)cyclohexan-1-ol], the IC50 under setting [1] was 2.81 µM.
On the same count and under the same terms, then `CN(c1ccccc1)c1nc(N)nc(-c2noc(C3CC(Oc4ccccc4)C3)n2)n1` (mixture of isomers) [Example 261, 2-N-Methyl-6-[5-(3-phenoxycyclobutyl)-1,2,4-oxadiazol-3-yl]-2-N-phenyl-1,3,5-triazine-2,4-diamine], with 1.39 µM.
Still for that read-out and setting: then `CN(c1ccccc1)c1nc(N)nc(-c2noc(-c3cccnn3)n2)n1` [Example 479, 2-N-methyl-2-N-phenyl-6-[5-(pyridazin-3-yl)-1,2,4-oxadiazol-3-yl]-1,3,5-triazine-2,4-diamine], with 1.14 µM.
Take `Cc1ccc(-c2nc(-c3nc(N)nc(N(C)c4ccccc4)n3)no2)s1` [Example 129, N-Methyl-6-[5-(5-methyl-thiophen-2-yl)-[1,2,4]oxadiazol-3-yl]-N-phenyl-[1,3,5]triazine-2,4-diamine]: under setting [2], the IC50 was 2.54 µM.

The record behind these values is patent US8895733B2 (Novartis AG, priority 2010, dated 2014).
